Results from patent US8268854B2, “Aza-beta-carbolines and methods of using same” (The UWM Research Foundation, Inc., priority 2008, dated 2012).
Where a name gives a salt, the structure may show the parent alone. Read-outs that look alike come from different tables or passages of the source.

How the values were obtained:
Dopamine receptor D4 = molecular target: T1, Dopamine receptor D4 (Homo sapiens, UniProt P21917); test: PDSP primary radioligand binding assay; settings: compound 10 μM, n=4, read-out: mean percentage inhibition, Dopamine receptor D4
T1 construct: expressed in transfected cells
T1 sequence (P21917 1-419): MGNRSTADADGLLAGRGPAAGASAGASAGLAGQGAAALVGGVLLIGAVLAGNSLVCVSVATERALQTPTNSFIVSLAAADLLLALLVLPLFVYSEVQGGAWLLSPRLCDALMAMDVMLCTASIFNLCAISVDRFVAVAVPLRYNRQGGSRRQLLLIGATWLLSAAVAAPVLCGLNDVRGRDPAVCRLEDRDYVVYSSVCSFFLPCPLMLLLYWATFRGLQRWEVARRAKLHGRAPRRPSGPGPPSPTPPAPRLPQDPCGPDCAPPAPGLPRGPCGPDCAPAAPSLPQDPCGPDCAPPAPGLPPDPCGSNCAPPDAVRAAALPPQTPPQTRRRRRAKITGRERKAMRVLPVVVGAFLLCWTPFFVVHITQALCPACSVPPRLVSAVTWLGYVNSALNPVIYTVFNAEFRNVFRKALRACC
Experimental: (§1) Primary and secondary radioligand binding assays are performed. In general, the primary assay is run at very high ligand (compound) concentration as a broad screen to determine whether a compound binds to a particular receptor. If greater than 50% inhibition at 10 μM (high concentration of compound) at a particular receptor is determined, a secondary assay is performed on that receptor. Data from the secondary assay is the binding affinity (Ki value).
(§2) A solution of the compound to be tested is prepared as a 1 mg/ml stock in Standard Binding Buffer or dimethyl sulfoxide (DMSO) according to its solubility. A similar stock of a reference compound (positive control) is also prepared.
(§3) Radioligand (radioligands are presented in Table 39) is diluted to five times the assay concentration (assay concentrations are presented in Table 39) in Standard Binding Buffer. Typically, the assay concentration of radioligand is a value between one half the KD and the KD of a particular radioligand at its target. Aliquots (50 μL) of radioligand are dispensed into the wells of a 96-well plate (see FIG. 11) containing 100 μL of Standard Binding Buffer (Table 40). Then, duplicate 50 μL aliquots of the test and reference compound dilutions are added (see FIG. 11). According to FIG. 11, increasing concentrations (from left to right) of reference or test compound (diluted in buffer) are added (50 μL aliquots, in duplicate) from 5× stock solutions to wells containing 50 μL of 5× radioligand (fixed concentration, prepared in buffer) and 100 μL of buffer. Finally, 50 μL of receptor-containing membrane homogenate (5× suspension in buffer) are added to achieve a final assay volume of 250 μL. Final concentrations of reference or test compound are listed above the columns in FIG. 11.
(§4) Finally, crude membrane fractions of cells expressing recombinant target (prepared from 10 cm plates by harvesting phosphate buffered saline (PBS)-rinsed monolayers, resuspending and lysing in chilled, hypotonic 50 mM Tris-HCl, pH 7.4, centrifuging at 20,000×g, decanting the supernatant and storing at −80° C.; typically, one 10 cm plate provides sufficient material for 24 wells) are resuspended in 3 mL of chilled Standard Binding Buffer and homogenized by several passages through a 26 gauge needle, and then 50 μL are dispensed into each well.
(§5) The 250 μL reactions are incubated at room temperature and shielded from light (to prevent photolysis of light-sensitive ligands) for 1.5 hours, then harvested by rapid filtration onto Whatman GF/B glass fiber filters pre-soaked with 0.3% polyethyleneimine using a 96-well Brandel harvester. Four rapid 500 μL washes are performed with chilled Standard Binding Buffer to reduce non-specific binding. Filters are placed in 6 mL scintillation tubes and allowed to dry overnight. The next day, 4 mL of EcoScint scintillation cocktail (National Diagnostics) are added to each tube. The tubes are capped, labeled, and counted by liquid scintillation counting. For higher throughput assays, bound radioactivity is harvested onto 0.3% polyethyleneimine-treated, 96-well filter mats using a 96-well Filtermate harvester. The filter mats are dried, then scintillant is melted onto the filters, and the radioactivity retained on the filters is counted in a Microbeta scintillation counter.
(§6) Raw data (dpm) representing total radioligand binding (i.e., specific+non-specific binding) are plotted as a function of the logarithm of the molar concentration of the competitor (i.e., test or reference compound). […]

Dopamine D5 = molecular target: T2, Dopamine D5 (Homo sapiens, UniProt P21918); test: PDSP primary radioligand binding assay; settings: compound 10 μM
T2 construct: expressed in transfected cells
Experimental: as §1, §2, §3, §4, §5, §6

Histamine receptor H2 = molecular target: T3, Histamine receptor H2 (Homo sapiens, UniProt P25021); test: PDSP primary radioligand binding assay; settings: compound 10 μM; for mean percentage inhibition, Histamine receptor H2: n=4, hydrochloride, 10 µM
T3 construct: expressed in transfected cells
Experimental: as §1, §2, §3, §4, §5, §6

Dopamine receptor D3 = molecular target: T4, Dopamine receptor D3 (Rattus norvegicus, UniProt P19020); test: PDSP primary radioligand binding assay; settings: compound 10 μM; for inhibition at 10 µM: n=4, read-out: mean percentage inhibition, Dopamine receptor D3
T4 construct: expressed in transfected cells
Experimental: as §1, §2, §3, §4, §5, §6

Dopamine receptor D2 = molecular target: T5, Dopamine receptor D2 (Homo sapiens, UniProt P14416); test: PDSP primary radioligand binding assay; settings: compound 10 μM; for inhibition at 10 µM: n=4, read-out: mean percentage inhibition, Dopamine receptor D2
T5 construct: expressed in transfected cells
Experimental: as §1, §2, §3, §4, §5, §6

[1] = molecular target: T6, GABAA receptor α2 subtype with β2 and γ2 subunits (Homo sapiens, UniProt P18507+P47869); test: Competition binding assay with [3H]flunitrazepam
T6 construct: expressed in transfected cells; host or cells: HEKT cell line, transient transfection with Fugene 6
Description: (§7) Bound radioactivity is quantified by liquid scintillation counting.

[2] = molecular target: T7, GABAA receptor α3 subtype with β2 and γ2 subunits (Homo sapiens, UniProt P18507+P34903); test: Competition binding assay with [3H]flunitrazepam
T7 construct: expressed in transfected cells; host or cells: HEKT cell line, transient transfection with Fugene 6
Description: as §7

[3] = molecular target: T8, GABAA receptor α1 subtype with β2 and γ2 subunits (Homo sapiens, UniProt P14867+P18507); test: Competition binding assay with [3H]flunitrazepam
T8 construct: expressed in transfected cells; host or cells: HEKT cell line, transient transfection with Fugene 6
Description: as §7

[4] = molecular target: T9, GABAA receptor α5 subtype with β2 and γ2 subunits (Homo sapiens, UniProt P18507+P31644); test: Competition binding assay with [3H]flunitrazepam
T9 construct: expressed in transfected cells; host or cells: HEKT cell line, transient transfection with Fugene 6
Description: as §7

| Structure (SMILES) | inhibition at 10 µM (Dopamine receptor D4) [%] | binding at 10 μM, Dopamine D5 (Dopamine D5) [%] | mean percentage inhibition, Histamine receptor H2 (Histamine receptor H2) [%] | inhibition at 10 µM (Histamine receptor H2; n=4, read-out: mean percentage inhibition, Histamine receptor H2) [%] | mean percentage inhibition, Dopamine receptor D3 (Dopamine receptor D3; n=4, hydrochloride, 10 µM) [%] | inhibition at 10 µM (Dopamine receptor D3) [%] | inhibition at 10 µM (Dopamine receptor D2) [%] | Ki ([1]; [3H]flunitrazepam, α2β2γ2, HEKT cells, read-out: GABAA RECEPTOR BINDING α2) [nM] | Ki ([2]; [3H]flunitrazepam, α3β2γ2, HEKT cells, read-out: GABAA RECEPTOR BINDING α3) [nM] | Ki ([3]; [3H]flunitrazepam, α1β2γ2, HEKT cells, read-out: GABAA RECEPTOR BINDING α1) [nM] | Ki ([4]; [3H]flunitrazepam, α5β2γ2, HEKT cells, read-out: GABAA RECEPTOR BINDING α5) [nM] | mean percentage inhibition, Dopamine receptor D2 (Dopamine receptor D2; n=4, hydrochloride, 10 µM) [%] | Ki [1] [nM] | Ki [2] [nM] | Ki [3] [nM] | Ki [4] [nM] |
| --- | --- | --- | --- | --- | --- | --- | --- | --- | --- | --- | --- | --- | --- | --- | --- | --- |
| CCCOc1cc2c(cn1)[nH]c1ccncc12 [Compound 2, 8-Propoxypyridino[4′,3′-5,4]pyrrolo[3,2-c]pyridine hydrochloride] | > 50 | < 50 | 31.4 | < 50 | 31.8 | < 50 | > 50 | 0.33 | 4.04 | 9.86 | 12.2 |  |  |  |  |  |
| CCCOc1cc2c(cn1)[nH]c1cnccc12 [Compound 4, 3-Propoxy pyridino[4′,3′-4,5]pyrrolo[2,3-c]pyridine hydrochloride] | -18.1 | < 50 | 26.8 |  |  | 24.1 | > 50 |  |  |  |  | 50 | 6.31 | 1.49 | 5.79 | 43.1 |
